Experimental data as given in article PMC12703428, “Development of Granzyme A Turn‐ON Fluorescent Activity‐Based Probes” (Chembiochem, 2025).
Square brackets hold non-standard residues; d marks the D form. Ends that are not written are not given here. Oic = O=C(O)[C@@H]1C[C@@H]2CCCC[C@@H]2N1; Tic = O=C(O)[C@@H]1Cc2ccccc2CN1

What was measured:
[1] = molecular target: T1, proteinase 3 (PR3) (Homo sapiens, UniProt P24158); assay: Cross-reactivity labeling, proteinase 3; format: biochemical; settings: protease 100 nM, probe 100 nM, 2 h, 37 °C, in-gel fluorescence
T1 sequence (P24158 28-256): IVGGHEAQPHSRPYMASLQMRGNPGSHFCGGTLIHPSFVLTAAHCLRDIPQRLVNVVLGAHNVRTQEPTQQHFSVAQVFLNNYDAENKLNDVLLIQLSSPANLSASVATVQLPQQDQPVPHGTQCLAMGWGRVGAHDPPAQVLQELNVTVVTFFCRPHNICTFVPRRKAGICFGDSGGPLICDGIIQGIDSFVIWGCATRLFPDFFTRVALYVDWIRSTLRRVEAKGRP
Description: Protease (100 nM) HNE PR3 GzmK GzmA
Protease (100 nM) GzmA GzmK
Supplementary Figure 2. Cross-reactivity of probes. (A) Labeling of GzmA, GzmK, PR3, and HNE
(100 nM, 2 h, 37 °C) by 100 nM of 5 and 6. (B) Labeling of GzmA and GzmK (100 nM, 2 h, 37 °C) by
100 nM of 3 – 6. (C) Concentration-dependent labeling of GzmA and GzmK (100 nM, 2 h, 37 °C) by 5 and
6. Protein samples were analyzed by SDS-PAGE and in-gel fluorescence scanning for Cy5 signal.
Protein loading was confirmed by SYPRO Ruby staining. […]

[2] = molecular target: T2, GzmA in lysate of NK‐92 cells (Homo sapiens, UniProt P12544); assay: Labeling of GzmA in NK-92 cell lysate; format: biochemical; settings: 1 mg/mL lysate, various probe concentrations, 1 h, 37 °C, in-gel fluorescence
T2 construct: host or cells: NK-92
T2 sequence (P12544 29-262): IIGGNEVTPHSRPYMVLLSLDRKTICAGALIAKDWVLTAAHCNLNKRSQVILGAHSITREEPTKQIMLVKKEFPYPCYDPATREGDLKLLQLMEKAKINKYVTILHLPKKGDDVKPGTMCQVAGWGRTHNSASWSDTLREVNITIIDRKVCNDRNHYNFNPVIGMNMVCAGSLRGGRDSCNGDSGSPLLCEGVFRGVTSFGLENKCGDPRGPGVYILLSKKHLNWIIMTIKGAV
Description: Figure 4 Characterization of qABPs in native proteomes. A) Labeling of GzmA by 5 and 6 in lysates of various cell lines (1 h, 37 °C). B) Stability of 5 and 6 in buffer and cell media (11 h, 37 °C). The hydrolysis of probes was measured by monitoring the production of Cy5 fluorescence signal over time. […] C) Labeling of GzmA by probes 3 –6 in NK‐92 cells (2 h, 37 °C). D) Flow cytometry analysis of protein labeling in NK‐92 cells by 3 –5. […] E) Flow cytometry analysis of concentration‐dependent GzmA labeling in NK‐92 cells and S/N of 5 (5 μM, 2 h, 37 °C). […]
Briefly, hGzmA (50 nM) was incubated with either inhibitor 1 or 2 (200 nM), and GzmA fluorogenic substrate […] (100 µM) in 50 mM Tris, 150 mM NaCl, 0.01% Triton X-100 (pH 8) for 15 hr at 37 °C. Recorded fluorescence at Ex/Em: 380/460 nm for residual GzmA […]
Cat. No. CRL-2570) and 4T1 (ATCC Cat. No. CRL-2539) cells were cultured in RPMI supplemented with 10% fetal bovine serum (FBS), 1% penicillin/streptomycin (PS), and 2 mM L-glutamine, while HEK293T and MDA-MB-231 cells (ATCC Cat. No. HTB-26) were cultured in DMEM supplemented likewise as described above. […] The supernatant was collected, and protein concentration was measured using a Pierce BCA protein assay. […]
C. In-gel fluorescence imaging […]

| Substance | Labeling of PR3 (cross-reactivity) [1] | Labeling of GzmA in NK-92 lysate [2] |
| --- | --- | --- |
| IGNR [compound 5] | Neither probe 5 nor 6 showed detectable labeling | selectively labeled GzmA in a concentration‐dependent manner at low nanomolar levels |
| [Tic]G[Oic]R [compound 6] | Neither probe 5 nor 6 showed detectable labeling | selectively labeled GzmA in a concentration‐dependent manner at low nanomolar levels |
